The values below come from US20220133894A1, “BISPHOSPHONATE-LINKED COMPOUNDS” (OREGON HEALTH & SCIENCE UNIVERSITY, priority 2019, published 2022).

The subject of assay [1] is RAW 267.4 cells. The assay is described as follows: Osteo Assay pit formation, osteoclast-mediated bone degradation. The class given is cell-based, mouse.
A further assay has as its system PC3-luc cells. The assay is described as follows: PCa intracardiac injection model, bone destruction by CT and survival. The format is in vivo, mice.
Assay [2] relates to prostate specific antigen (PSA). The assay is described as follows: PSA expression by qRT/PCR in VCaP cells. The class given is cell-based, human. To be noted: VCaP cells in androgen depleted media. The method, then:
(§1) Cells were cultured in media depleted of androgen and after a washout of 72 hrs were treated with the synthetic androgen R1881, KBU2046, enzalutamide and/or vehicle (control), and resultant effects upon induction of the androgen-responsive gene, prostate specific antigen (PSA) were measured (FIG. 3A).
(§2) LNCaP or VCaP cells cultured in hormone free media were treated with R1881 (R), KBU2046 (46) and/or enzalutamide (E). (FIGS. 3A and 3B) Effects on AR-responsive gene expression. PSA expression was measured by qRT/PCR, normalized to GAPDH and expressed as a percent of control cells (N=3 replicates); * denotes P<0.05 for groups separated by bar. (FIGS. 3C and 3D) Effects on cell growth. Three day growth assays were performed. Data are the number of viable cells, expressed as % of control (N=3 replicates); * P<0.05 compared to control. (E) Effects on AR activation. Western blots of nuclear (N) and cytoplasmic (C) preparations of cell extracts were probed for AR, laminin 1 or α-tubulin. (FIGS. 3F and 3G) Effects on tumor outgrowth after androgen deprivation therapy. LNCaP/AR-luc cells were implanted subcutaneously (N=6 mice/cohort) or orthotopic (N=15 mice/cohort were implanted; N=5 yielded tumors) into castrate mice, treatment with KBU2046 began as noted, and weekly IVIS imaging performed. Data are tumor size, expressed as luminescence intensity. All data are expressed as mean±SEM.
(§3) RNA was isolated and qRT/PCR performed as previously described by us (Ding et al., J Biomol Tech 18, 321-330 (2007)). Resultant data were analyzed using the 2^−ΔΔt method (Livak et al., Methods 25, 402-408 (2001)), normalized to GAPDH, for the following primer/probe sets (ABI) PSA (Hs02576345_m1) and GAPDH (Hs99999905_m1). Assays were performed in triplicate, and were repeated.

For assay [3] the test system is unchanged. The assay is described as follows: PSA expression by qRT/PCR in LNCaP cells. The class given is cell-based, human. To be noted: LNCaP cells in androgen depleted media. The method, then:
as §1, §2, §3

Assay [4] has as its system RAW 267.4 cells. The assay is described as follows: Osteoclast morphology and maturation (actin/DAPI immunofluorescence, TRAP staining). Particulars: Raf1-specific inhibitors; TRAP staining, multinucleated cells, resorptive cavity formation. The format is cell-based, mouse. From the text: Treatment of RAW 267.4 cells with KBU2046 induces several structural and functional changes. It reduces RANKL-mediated formation of multinucleated cells, and those that do form have lower numbers of nuclei (see 40× panels, FIG. 4B). The characteristic prominent actin ring (white arrow) surrounding the resorptive cavity (yellow arrow) is readily apparent in control cells treated with RANKL ligand, but is lacking in KBU2046-treated cells (100×, panels). Consistent with it inhibiting maturation of RAW 267.4 cells, TRAP staining is decreased in KBU2046-treated cells (FIG. 4C).
FIG. 4 represents the KBU2046 inhibition of osteoclast function. FIG. 4A compares effects on Raf1 activation. RAW 267.4 cells were treated with RANKL for 4 days, treated with 10 μM KBU2046 for the indicated time periods, and Western blot for the denoted proteins performed. (B) Effects on cell morphology. RAW 267.4 cells were treated with RANKL and with KBU2046 for 4 days, or not, and denoted, and stained for actin (green) and DAPI (blue); white arrow denotes an actin ring, yellow arrow a resorptive cavity. Representative immunofluorescent images are depicted. (C) Tartrate resistant acid phosphatase (TRAP) expression. Cells were treated as in B, stained for TRAP (denoted by presence of red), and representative images from light microscopy depicted. (D) Bone degradation. RAW 267.4 cells were plated onto Osteo Assay plates, treated with RANKL for 6 days and with KBU2046 (or vehicle for controls) as indicated and bone surface area quantified. Data are the mean±SEM (N=3 replicates) of bone surface area, expressed as the percentage of control cells; * denotes P<0.05 compared to control.
Raw 264.7 cells were grown in differentiation medium (described below), with or without KBU2046, for 4 days on a Chamber Slide (Nunc Lab-Tek). Chambers were washed once with PBS, followed by 10-minute fixation in cold 10% neutral-buffered formalin (VWR) and a post-fixation wash with PBS. […] The cells were then incubated for 2 hours at 4° C. in Dylight Phallodin (Cell Signaling technology, #12935) antibody diluted 1:40 in 1×PBS with 1% BSA and 0.3% Triton X-100. Subsequently, the slide was washed once with PBS, a coverslip mounted with ProLong Gold Antifade Reagent with DAPI (Cell Signaling Technology, #8961), and imaged on a Confocal Microscope (Nikon/Yokogawa Spinning Disc).

Where [5] appears, read: experimental compounds with RANKL, day 6, FIGS. 6A-6L.
[6] abbreviates: Raf1-specific inhibitors, Supplementary Fig. S5.

In the case of `O=C(CCOCCNC(=O)COc1ccc2c(c1)OCC(c1ccc(F)cc1)C2=O)NCCCC(O)(P(=O)(O)O)P(=O)(O)O` (centres unmarked) [Compound E (n=1), (4-(3-(2-(2-((3-(4-fluorophenyl)-4-oxochroman-7-yl)oxy)acetamido)ethoxy)propanamido)-1-hydroxybutane-1,1-diyl)bis(phosphonic acid)], the osteoclast-mediated bone degradation result with RAW 267.4 cells [1] (setting [5]) is “inhibiting”. In addition, in the assay on PC3-luc cells (10, 100 or 1000 ug/kg weekly intraperitoneal, from 1 week before IC injection), the survival entry is given as “prolongs”. Also, the “bone destruction in the jaw” value in the assay on PC3-luc cells (10, 100 or 1000 μg/kg weekly intraperitoneal, from 1 week before IC injection, CT) was “inhibits”. Consider `O=C(CCOCCOCCNC(=O)COc1ccc2c(c1)OCC(c1ccc(F)cc1)C2=O)NCCCC(O)(P(=O)(O)O)P(=O)(O)O` (centres unmarked) [Compound E (n=2), (1-((3-(4-fluorophenyl)-4-oxochroman-7-yl)oxy)-17-hydroxy-2,12-dioxo-6,9-dioxa-3,13-diazaheptadecane-17,17-diyl)bis(phosphonic acid)], for which, in the assay on RAW 267.4 cells [1] (setting [5]), the osteoclast-mediated bone degradation result is on record as “inhibiting”. For `O=C(CCOCCOCCOCCCNC(=O)COc1ccc2c(c1)OCC(c1ccc(F)cc1)C2=O)NCCCC(O)(P(=O)(O)O)P(=O)(O)O` (centres unmarked) [Compound E (n=3), (1-((3-(4-fluorophenyl)-4-oxochroman-7-yl)oxy)-21-hydroxy-2,16-dioxo-7,10,13-trioxa-3,17-diazahenicosane-21,21-diyl)bis(phosphonic acid)], the osteoclast-mediated bone degradation result in the assay with RAW 267.4 cells [1] (setting [5]) was “inhibiting”. On to `O=C(CCOCCNC(=O)COc1ccc2c(c1)OCC(c1ccc(F)cc1)C2=O)NCC(O)C[n+]1ccn(CC(O)(P(=O)(O)O)P(=O)(O)O)c1` (centres unmarked) [Compound G, 3-(3-(3-(2-(2-((3-(4-fluorophenyl)-4-oxochroman-7-yl)oxy)acetamido)ethoxy)propanamido)-2-hydroxypropyl)-1-(2-hydroxy-2,2-diphosphonoethyl)-1H-imidazol-3-ium], for which the osteoclast-mediated bone degradation entry in the assay with RAW 267.4 cells [1] (setting [5]) is “inhibiting”. On the same count and under the same terms, with `O=C(CCOCCOCCOCCNC(=O)COc1ccc2c(c1)OCC(c1ccc(F)cc1)C2=O)NCC(O)C[n+]1ccn(CC(O)([PH](=O)O)P(=O)(O)O)c1` (centres unmarked) [Compound H, (2-(3-(1-((3-(4-fluorophenyl)-4-oxochroman-7-yl)oxy)-15-(I1-oxidaneyl)-2,12-dioxo-6,9-dioxa-3,13-diazahexadecan-16-yl)-1H-3I4-imidazol-1-yl)-1-hydroxyethane-1,1-diyl)bis(hydrogen phosphonate)] the entry was “inhibiting”.

Turning to `O=C(CCOCCOCCOCCOCCNC(=O)COc1ccc2c(c1)OCC(c1ccc(F)cc1)C2=O)NCC(O)C[n+]1ccn(CC(O)([PH](=O)O)P(=O)(O)O)c1` (centres unmarked) [Compound I, (2-(3-(1-((3-(4-fluorophenyl)-4-oxochroman-7-yl)oxy)-18-(I1-oxidaneyl)-2,15-dioxo-6,9,12-trioxa-3,16-diazanonadecan-19-yl)-1H-3I4-imidazol-1-yl)-1-hydroxyethane-1,1-diyl)bis(hydrogen phosphonate)], the osteoclast-mediated bone degradation result with RAW 267.4 cells [1] (setting [5]) is “inhibiting”. Turning to `C[C@]1(O)CC[C@H]2[C@@H]3CCC4=CC(=O)CCC4=C3C=C[C@@]21C` [Compound R1881], the PSA expression entry in assay [2] and in assay [3] was “significantly increased” each time. Consider `O=C1Nc2ccc(I)cc2/C1=C/c1cc(Br)c(O)c(Br)c1` [GW5074], for which the osteoclast-mediated bone degradation result with RAW 267.4 cells [1] (setting [6]) was “inhibit”. In addition, in the assay with RAW 267.4 cells [4], the RANKL-induced osteoclast maturation entry is “inhibit”.

In the case of `Cc1ccc(C(=O)Nc2cccc(C(F)(F)F)c2)cc1Nc1nc(-c2cccnc2)nc2c1cnn2C` [NVP-BHG712], in the assay on RAW 267.4 cells [1] (setting [6]), the osteoclast-mediated bone degradation result was “inhibit”. Besides, in the assay with RAW 267.4 cells [4], the RANKL-induced osteoclast maturation result is given as “inhibit”. Regarding `O=P(O)(O)C(O)(Cn1ccnc1)P(=O)(O)O` [ZA, zoledronic acid], in the assay on PC3-luc cells (oral 150 mg KBU2046/kg daily, intraperitoneal ZA 100 μg/kg weekly, CT), the “improvement of femur bone density compared to control” value came to 56±2.7%. For `Cc1ccc(NC(=O)c2cccc(N(C)C)c2)cc1NC(=O)c1ccc(O)cc1` [ZM336372], the osteoclast-mediated bone degradation result with RAW 267.4 cells [1] (setting [6]) is listed as “inhibit”. Further, the RANKL-induced osteoclast maturation result in the assay with RAW 267.4 cells [4] is “inhibit”.
